In US6380249B1 (dated 2002):

melting point [°C] | SMILES
83 to 85 | COCCOc1c(OC)cc(Cc2ccccc2)cc1C(=O)CC(=O)C(=O)O
99 to 100 | COc1cc(Cc2ccccc2)cc(C(=O)CC(=O)C(=O)O)c1OCCSC
154 to 155 | O=C(O)C(=O)CC(=O)c1cc(Cc2ccccc2)cc2c1OCCO2
182 to 183 | O=C(O)C(=O)CC(=O)c1cc(Cc2ccccc2)cc2c1OCC(O)CO2 (racemic)

More lines, now with the values behind:

SMILES | melting point [°C]
O=C(O)C(=O)CC(=O)c1ccccc1OCc1ccccc1 | 136 to 138
O=C(O)C(=O)CC(=O)c1cccc(OCc2ccc(F)cc2)c1 | 157 to 158
O=C(O)C(=O)CC(=O)c1ccc2ccn(Cc3ccc(F)cc3)c2c1 | 173 to 174
O=C(O)C(=O)CC(=O)c1cccc2c1ccn2Cc1ccc(F)cc1 | 156 to 157
O=C(O)C(=O)CC(=O)c1cccc(OCc2ccc(F)c(F)c2)c1 | 181 to 182
COc1cc(OCc2ccccc2)cc(C(=O)CC(=O)C(=O)O)c1 | 101 to 102
C=CCCCc1cc(OC)c(OC)c(C(=O)CC(=O)C(=O)O)c1 | 75 to 76
COc1cc(CC2CC2)cc(C(=O)CC(=O)C(=O)O)c1OC | 101 to 103
